Assay results reported in patent US20140235630A1, “COMPOSITIONS AND METHODS FOR THE TREATMENT OF PROLIFERATIVE DISEASES” (Beth Israel Deaconess Medical Center, Inc., priority 2011, published 2014).

Experiments:
HCC1937 cells = assay: DNA damage response immunoblots with or without ionizing radiation (10 Gy); type: cell-based, human
Description: FIG. 5A are immunoblots showing the effects of Compound A, ATM inhibitor KU-55933, and their combination on the DNA damage response. HCC1937 were treated for 18 hours with Compound A at 2.5 μM, KU55933 at 10 μM, or their combination, subjected to ionizing irradiation with 10 Gy or mock, lysed 6 hours later, and subjected to immunoblotting. […] Immunoblots were performed using the Nupage System (Invitrogen). The protein concentration was determined using Bradford reagent (Biorad). A total of 20 μg of protein were loaded, except for PAR, Phospho ATM and Phospho DNA-PK/PRKDC western blots, where 40 μg were loaded. Tumor tissue lysates were prepared similarly with the exception of tissue homogenization by using an electric homogenizer for 30 secs after addition of the lysis buffer. Primary antibodies used for western blotting were total AKT (9272), Cleaved […] 3 (9661), total ERK (4695), Phospho AKT Ser473 (4058), Phospho ERK Thr202/Tyr204 (9106), Phospho-Histone H2AX Ser139 (2577), PTEN (9559) from Cell Signaling. Phospho ATM […] (2152-1), Phospho DNA-PK/PRKDC […] (3892-1) from Epitomics, Inc. CD31 (ab28364), Actin (ab6276), INPP4B (ab81269) from Abcam; pADPr (sc56198) from Santacruz Biotechnology; and Ki-67 (RM-9106) was purchased from Thermo Scientific.

[1] = tested on: mouse lung tumors with transgenic H1047R mutant of PIK3CA; details: within two days; cited from earlier work
blood vessels in tumors = details: in vivo; cited from earlier work

O=c1cc(-c2cccc3c2Sc2ccccc2S3)oc(N2CCOCC2)c1 [KU-55933, reference compound]
H2AX phosphorylation in response to ionizing radiation (HCC1937 cells; 18 hours pre-treatment, 10 Gy, lysed 6 hours later): prevented the increase
auto-phosphorylation of ATM (HCC1937 cells; KU-55933 10 μM, 18 hours): decrease

Cn1c(=O)n(-c2ccc(C(C)(C)C#N)cc2)c2c3cc(-c4cnc5ccccc5c4)ccc3ncc21 [BEZ235]
FDG-PET signal [1]: caused a reduction in the FDG-PET signal
sprouting of new blood vessels in tumors (blood vessels in tumors): inhibits the sprouting of new blood vessels
